Experimental findings from PMC7738283, “Discovery of orally active chalcones as histone lysine specific demethylase 1 inhibitors for the treatment of leukaemia” (Journal of Enzyme Inhibition and Medicinal Chemistry, 2020) are described below.

The structures appear in SMILES notation. Some results are limits rather than exact numbers.

One data set addresses T1, MAO-B (Homo sapiens, UniProt P27338).
T1 construct: purchased Active Motif 31503
T1 sequence (P27338 1-520): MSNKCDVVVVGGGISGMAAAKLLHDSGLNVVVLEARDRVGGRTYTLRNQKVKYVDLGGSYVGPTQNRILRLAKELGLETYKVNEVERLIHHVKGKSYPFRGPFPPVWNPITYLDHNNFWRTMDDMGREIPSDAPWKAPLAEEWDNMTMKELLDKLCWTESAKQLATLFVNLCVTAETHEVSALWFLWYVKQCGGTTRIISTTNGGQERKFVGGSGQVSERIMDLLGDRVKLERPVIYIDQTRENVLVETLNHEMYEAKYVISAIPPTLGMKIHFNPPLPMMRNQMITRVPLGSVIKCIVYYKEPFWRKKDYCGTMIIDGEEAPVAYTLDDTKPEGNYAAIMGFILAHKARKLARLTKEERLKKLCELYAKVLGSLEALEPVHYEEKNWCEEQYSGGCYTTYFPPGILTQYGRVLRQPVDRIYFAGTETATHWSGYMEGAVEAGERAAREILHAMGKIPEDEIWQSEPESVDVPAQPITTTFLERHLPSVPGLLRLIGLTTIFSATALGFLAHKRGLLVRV
As to the kind of experiment: MAO-B inhibition assay (MAO-Glo kit). It counts as biochemical. Particulars: in vitro; MAO-AB [sic]. Here is the method:
(§1) The inhibition of LSD1 activity was evaluated according to reported references. pET-28b-LSD1 (full length) was transfected into BL21 (DE). Then, the protein was induced with 0.25 mmol/L IPTG following sonication and purified with Ni-NTA (Qiagen, Tubingen, Germany), Resource Q (GE, Pittsburgh, PA, USA) and Sephacryl S-200 HR (GE, Pittsburgh, PA, USA). The fluorescence intensity was read using EnVision Plate Reader (PerkinElmer, Waltham, MA, USA) to calculate the inhibition rate. The MAO-A and MAO-B were purchased from Active Motif (Cat#31502, Cat#31503, Carlsbad, CA, USA). Biochemical Kits were purchased from Promega (MAO-Glo Assay, Madison, WI, USA). The inhibitory activities of MAO-A and MAO-B were obtained according to the reported reference. The inhibitory activities of CDK1 and CDK2 were obtained according to the reported reference.

Another data set deals with T2, MAO-A (Homo sapiens, UniProt P21397).
T2 construct: purchased Active Motif 31502
T2 sequence (P21397 1-527): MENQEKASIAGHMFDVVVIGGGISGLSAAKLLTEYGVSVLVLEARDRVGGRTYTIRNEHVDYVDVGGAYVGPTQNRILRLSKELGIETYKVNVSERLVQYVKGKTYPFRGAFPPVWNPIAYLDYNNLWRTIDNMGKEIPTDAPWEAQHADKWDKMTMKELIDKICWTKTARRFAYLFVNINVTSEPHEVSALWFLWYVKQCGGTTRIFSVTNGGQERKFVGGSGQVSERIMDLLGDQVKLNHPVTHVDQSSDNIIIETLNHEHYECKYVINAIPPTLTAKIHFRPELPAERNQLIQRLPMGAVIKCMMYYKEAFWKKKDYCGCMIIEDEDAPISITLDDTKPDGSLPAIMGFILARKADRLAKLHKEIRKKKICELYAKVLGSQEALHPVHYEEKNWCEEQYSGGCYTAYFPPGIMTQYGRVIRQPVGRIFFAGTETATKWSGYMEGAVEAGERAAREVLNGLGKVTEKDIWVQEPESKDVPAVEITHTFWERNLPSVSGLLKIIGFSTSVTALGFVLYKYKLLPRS
As to the kind of experiment: MAO-A inhibition assay (MAO-Glo kit). Particulars: in vitro. It counts as biochemical. The method, then:
as §1

Another data set concerns the target T3, LSD1 (Homo sapiens, UniProt O60341).
T3 construct: pET-28b-LSD1 (full length) was transfected into BL21 (DE); inferred from the pET-28b vector and Ni-NTA purification; made in house; host or cells: E. coli BL21 (DE)
As to the kind of experiment: LSD1 enzyme inhibition assay (recombinant LSD1, fluorescence). It is filed as biochemical. Particulars: for IC50: in vitro.

The next data set has as its system MOLT-4 cells. Nature of the data set: MTT cell viability assay, MOLT-4. It is filed as cell-based, human. Particulars: Homo sapiens; MOLT-4 leukaemia cells, MTT; read-out: IC50 cell proliferation MOLT-4. On the technique in general: Formazan colour is commonly taken as a measure of viable cells.
For another data set, the system named is LC4-1 cells. Nature of the data set: MTT cell viability assay, LC4-1. It is filed as cell-based. Particulars: Homo sapiens, LC4-1 leukaemia cells, read-out: IC50 cell proliferation LC4-1.
Another data set has as its system P30-OHK cells. As to the kind of experiment: MTT cell viability assay, P30-OHK. It counts as cell-based. Particulars: Homo sapiens, P30-OHK leukaemia cells, read-out: IC50 cell proliferation P30-OHK.
The subject of a further data set is SUP-B15 cells. Nature of the data set: MTT cell viability assay, SUP-B15. The settings on record: Homo sapiens, SUP-B15 leukaemia cells, read-out: IC50 cell proliferation SUP-B15. It counts as cell-based.
The next data set relates to HAL-01 cells. As to the kind of experiment: MTT cell viability assay, HAL-01. It is filed as cell-based. Particulars: Homo sapiens, HAL-01 leukaemia cells, read-out: IC50 cell proliferation HAL-01.
In another data set the test system is KE-37 cells. As to the kind of experiment: MTT cell viability assay, KE-37. It is filed as cell-based. Particulars: Homo sapiens, KE-37 leukaemia cells, read-out: IC50 cell proliferation KE-37.

Procedure for HAL-01 cells: (§2) All cell lines were purchased from the China Centre for Type Culture Collection (CCTCC, China). […] Then, 20 μL of MTT (3–(4,5-dimethylthiazol-2-yl)-2,5-diphenyltetrazolium bromide) solution (5 mg/ml) was added and the cells were incubated for 4 h. The absorbance was measured using a microplate reader (DeTie Technology Co., Ltd, NanJing, China).
Procedure for KE-37 cells: as §2
Procedure for LC4-1 cells: as §2
Procedure for LSD1: The inhibition of LSD1 activity was evaluated according to reported references [23, 24]. pET-28b-LSD1 (full length) was transfected into BL21 (DE). Then, the protein was induced with 0.25 mmol/L IPTG following sonication and purified with Ni-NTA (Qiagen, Tubingen, Germany), Resource Q (GE, Pittsburgh, PA, USA) and Sephacryl S-200 HR (GE, Pittsburgh, PA, USA). The fluorescence intensity was read using EnVision Plate Reader (PerkinElmer, Waltham, MA, USA) to calculate the inhibition rate. […] The inhibitory activities of CDK1 and CDK2 were obtained according to the reported reference [26].
Procedure for MOLT-4 cells: as §2
Procedure for P30-OHK cells: as §2
Procedure for SUP-B15 cells: as §2

`Cc1ccc(Cn2cc(CSC(=S)N3CCN(C(=O)OC(C)(C)C)CC3)nn2)cc1` [Dithiocarbamate 26, reference compound]: the IC50 on MAO-B and on MAO-A was above 20 µM throughout.
As for `O=C(CSC(=S)N1CCN(Cc2ccccc2)CC1)Nc1ccc(C(=O)/C=C/c2ccccc2F)cc1` [D7, (E)-2-((4–(3-(2-Fluorophenyl)acryloyl)phenyl)amino)-2-oxoethyl-4-benzylpiperazine-1-carbodithioate], the results for the IC50 against MAO-B, against MAO-A and at LSD1 were above 20 µM, above 20 µM and 3.27 ± 0.13 µM, respectively.
On to `O=C(CCl)Nc1ccc(C(=O)/C=C/c2ccc(F)cc2)cc1` [C4], for which the IC50 on MAO-B, against MAO-A and on LSD1 was above 20 µM in each case.
As usually defined, the melting point is the temperature, or range, at which the solid turns liquid. The compound `CCN1CCN(C(=S)SCC(=O)Nc2ccc(C(=O)/C=C/c3cccc(F)c3)cc2)CC1` [D5, (E)-2-((4–(3-(3-Fluorophenyl)acryloyl)phenyl)amino)-2-oxoethyl-4-ethylpiperazine-1-carbodithioate] gave a melting point of 136 to 138 °C. The compound also gave an IC50 against MAO-B above 20 µM. Also, the IC50 on MAO-A was above 20 µM. The IC50 at LSD1 is 2.29 ± 0.35 µM.
The compound `O=C(CCl)Nc1ccc(C(=O)/C=C/c2ccccc2)cc1` [C1, (E)-2-Chloro-N-(4-cinnamoylphenyl)acetamide] displayed a melting point of 145 to 147 °C. The compound further registered an IC50 on MAO-B above 20 µM. Further, the IC50 on MAO-A was above 20 µM. Further, the IC50 on LSD1 is above 20 µM.
Regarding `CN1CCN(C(=S)SCC(=O)Nc2ccc(C(=O)/C=C/c3cccc(F)c3)cc2)CC1` [D4, (E)-2-((4–(3-(3-Fluorophenyl)acryloyl)phenyl)amino)-2-oxoethyl-4-methylpiperazine-1-carbodithioate], the IC50 was above 20 µM against MAO-B, above 20 µM on MAO-A and 6.03 ± 0.17 µM at LSD1.
Regarding `Nc1ccc(C(=O)/C=C/c2ccccc2F)cc1` [Chalcone 4, reference compound], the IC50 at MAO-B, against MAO-A and at LSD1 was above 20 µM each time.
For `CCN1CCN(C(=S)SCC(=O)Nc2ccc(C(=O)/C=C/c3ccc(F)cc3)cc2)CC1` [D1, (E)-2-((4–(3-(4-Fluorophenyl)acryloyl)phenyl)amino)-2-oxoethyl-4-ethylpiperazine-1-carbodithioate], the melting point was 182 to 184 °C. Also, on MAO-B, the IC50 was above 20 µM. The same compound showed an IC50 against MAO-A above 20 µM. For the same compound, the IC50 at LSD1 came out at 11.3 ± 0.13 µM.
`O=C(CCl)Nc1ccc(C(=O)/C=C/c2cccc(F)c2)cc1` [C2, (E)-2-Chloro-N-(4–(3-(3-fluorophenyl)acryloyl)phenyl)acetamide] showed a melting point of 156 to 158 °C. On MAO-B, this compound displayed an IC50 above 20 µM. This compound also yielded an IC50 against MAO-A above 20 µM. The IC50 on LSD1 was 19.7 ± 0.67 µM.
On to `O=C(CCl)Nc1ccc(C(=O)/C=C/c2ccccc2F)cc1` [C3, (E)-2-Chloro-N-(4–(3-(2-fluorophenyl)acryloyl)phenyl)acetamide], for which the melting point is 167 to 169 °C. This compound also displayed an IC50 on MAO-B above 20 µM. This compound gave an IC50 against MAO-A above 20 µM. In addition, on LSD1, the IC50 came out at 15.4 ± 0.28 µM.
The compound `CCN1CCN(C(=S)SCC(=O)Nc2ccc(C(=O)/C=C/c3ccccc3)cc2)CC1` [D3, (E)-2-((4-Cinnamoylphenyl)amino)-2-oxoethyl-4-ethylpiperazine-1-carbodithioate] came in with a melting point of 181 to 183 °C. Moreover, the IC50 on MAO-B is above 20 µM. Moreover, the IC50 on MAO-A is above 20 µM. In addition, at LSD1 (D3 vs. D5), the “fold activity loss against LSD1 (fluorine replaced with hydrogen)” value is listed as “over 6 fold”. Moreover, the IC50 at LSD1 is 13.9 ± 0.18 µM.
With `CN1CCN(C(=S)SCC(=O)Nc2ccc(C(=O)/C=C/c3ccccc3)cc2)CC1` [D2, (E)-2-((4-Cinnamoylphenyl)amino)-2-oxoethyl-4-methylpiperazine-1-carbodithioate], the IC50 was above 20 µM against MAO-B, above 20 µM against MAO-A and 9.35 ± 0.14 µM on LSD1.
As for `O=c1[nH]cc(F)c(=O)[nH]1` [5-Fluorouracil], the IC50 in the data set with MOLT-4 cells amounted to 2.89 µM; with LC4-1 cells it was 10.2 µM; with P30-OHK cells it was 4.17 µM; in the data set with SUP-B15 cells, 2.1 µM; with HAL-01 cells, 5.1 µM; in the data set on KE-37 cells, 4.02 µM.
